In patent US20250115569A1, “SULFONAMIDE COMPOUNDS FOR THE TREATMENT OF NEUROLOGICAL CONDITIONS” (LARIO THERAPEUTICS LIMITED, priority 2021, published 2025):

These compounds were tested on Human Cav2.3 channel (assay: Human Cav2.3 channel calcium-influx assay). Conditions: Fluo8 fluorescence, HEK-293 T-Rex/Kir2.1/Cav2.3e cells, without pluronic acid.
Assay type: cell-based
Method: HEK-293 T-Rex cells were transfected with pcDNA3.1-Kir2.1 to generate a stable cell line. After antibiotic selection, the obtained stable pools were analysed using FLIPR^TETRA (membrane potential assay), and a limiting dilution was performed and a HEK-293 T-Rex/Kir2.1 clone was selected. The clone was transfected with pcDNA3.1-Cav2.3e and pBud-Cav-β4-α2δ1 to generate a stable cell line where the Cav2.3e expression is inducible. After antibiotic selection, functional clone pool analysis and two successive limiting dilutions, the final clone underwent a qPCR analysis and a biophysical and pharmacological validation using patch-clamp.
A compound plate, containing 10 test compounds in eight-points dose response with n=4, was prepared. Test compounds dose response curves were prepared in automated fashion in 100% DMSO at CyBio Felix and starting from a stock solution in 100% DMSO; a defined volume was serially moved into destination wells pre-filled with the desired DMSO volume; stock solution concentration volumes were dependent on the final compounds concentrations to be tested and the final DMSO content used in the assay. For the assay test compounds dose response curves ranged from 30 μM and half log dilution with 0.3% final DMSO. In order to obtain the 8-points dose response curve all the concentrations were created by starting from a 10 mM DMSO stock solution and then moving 9.5 μL into a destination well pre-filled with 20.5 μL of 100% DMSO and repeating this step seven times. This initial step was done into 96 MTP plates, 10 compounds/plate. One 384 MTP was then reformatted to contain all the 10 compounds at 8 concentrations, quadruplicate data points. This so obtained 384 MTP compound plate served as source plate in a “mother to child” process with a CyBi®-Well dispenser in which 0.7 μL of compounds were moved into a destination plate pre-filled with 57.6 μL of Tyrode's buffer 0 mM K+, thus obtaining 4× concentrated compounds solution. In columns 1-2 and 23-24 the control wells were added. Both “source” compound plate and “destination” compound plate were barcoded and a relationship between the two plates was thus generated.
The day before the experiment, cells were detached by gentle wash with DPBS, followed by 5 min incubation at 37° C. with Trypsin solution. Detached cells were diluted with OptiMEM+Doxycycline at 0.2 μg/mL, counted and plated in Poly-D-Lysine coated black/clear bottom (15.000 c/well in 20 μl/well) by the use of a MATRIX WellMate dispenser. Plates were placed into a humidified incubator at 37° C. with 5% CO2 until the experimental day. 24 h after seeding 10 μL/well of 1.5× Fluo8 NW dye solution prepared in Tyrode's buffer 0 mM K* were added on top of the seeding medium. Cell plates were incubated for 40-60 min at RT in the dark. We then Injected off-line 10 μL/well of test compounds and controls 4× concentrated in Tyrode's Buffer 0 mM K+ with the CyBi®-Well instrument. Cell plates were incubated 3 minutes at RT. Finally, we injected 20 μL/well of 3× concentrated activator solution (K20-Na130-Ca2 buffer: 20 mM KCl, 130 mM NaCl, 2 mM CaCl2, 10 mM HEPES, 10 mM Glucose, final concentrations, prepared starting from “K0-Na150-Ca2” and “K150-Na0-Ca2” buffers) at FDSS7000EX instrument and read emitted fluorescence for 130 seconds.
Data analysis was performed with Genedata Screener® software and reported compounds activity as % effect in relation to the normalization standards. The Kinetic Response Value (KRV) is calculated as follows:
KRV=Maximal fluorescence recorded from second 5 to second 130 minus baseline fluorescence, computed as average from second 1 to second 2, of the kinetic trace. The KRV was normalized versus Neutral Controls and Inhibitor Controls in order to obtain the Activity[%] for each well. […] Therefore, the compound activity values were scaled (based on the two references) to a common range (two-point normalization). […]

Row | SMILES | Cav2.3 (pIC50)
1 | COc1cc(S(=O)(=O)N(C)[C@H](c2ccc(Cl)cc2)C(F)(F)F)cnn1 [Example 229, (R)—N-(1-(4-chlorophenyl)-2,2,2-trifluoroethyl)-6-methoxy-N-methylpyridazine-4-sulfonamide] | 6.93
2 | Cc1ncc(S(=O)(=O)N(C)C(c2ccc(F)cc2)C(F)(F)F)cn1 (stereo not shown) [Example 74, N,2-dimethyl-N-(2,2,2-trifluoro-1-(4-fluorophenyl)ethyl)pyrimidine-5-sulfonamide] | 5.83
3 | CN([C@H](c1ccc(C(F)(F)F)cc1)C(F)(F)F)S(=O)(=O)c1ccn2ncnc2c1 [Example 215, (R)—N-methyl-N-(2,2,2-trifluoro-1-(4-(trifluoromethyl)phenyl)ethyl)-[1,2,4]triazolo[1,5-a]pyridine-7-sulfonamide] | 7.15
4 | CCN(C(c1ccc(F)cc1)C(F)(F)F)S(=O)(=O)c1ccc2c(c1)OCC2 (stereo not shown) [Example 39, N-ethyl-N-(2,2,2-trifluoro-1-(4-fluorophenyl)ethyl)-2,3-dihydrobenzofuran-6-sulfonamide] | 5.82
5 | CN([C@@H](c1ccc(F)cc1)C(F)(F)F)S(=O)(=O)C1CCOCC1 [Example 131, (S)—N-methyl-N-(2,2,2-trifluoro-1-(4-fluorophenyl)ethyl)tetrahydro-2H-pyran-4-sulfonamide] | 5.12
6 | CN([C@H](c1ccc(F)cc1)C(F)(F)F)S(=O)(=O)c1ccc2cnn(C)c2c1 [Example 161, (R)—N,1-dimethyl-N-(2,2,2-trifluoro-1-(4-fluorophenyl)ethyl)-1H-indazole-6-sulfonamide] | 6.22
7 | CN(C(c1ccc(F)cc1)C(F)(F)F)S(=O)(=O)c1cncnc1 (stereo not shown) [Example 58, N-methyl-N-(2,2,2-trifluoro-1-(4-fluorophenyl)ethyl)pyrimidine-5-sulfonamide] | 6.35
8 | CN([C@H](c1ccc(Cl)cc1)C(F)(F)F)S(=O)(=O)c1cnc2cccnn12 [Example 210, (R)—N-(1-(4-chlorophenyl)-2,2,2-trifluoroethyl)-N-methylimidazo[1,2-b]pyridazine-3-sulfonamide] | 6.85
9 | CCN(C(c1ccc(F)cc1)C(F)(F)F)S(=O)(=O)C1CCOCC1 (stereo not shown) [Example 61, N-ethyl-N-(2,2,2-trifluoro-1-(4-fluorophenyl)ethyl)tetrahydro-2H-pyran-4-sulfonamide] | 7.01
10 | CCN(C(c1ccc(F)cc1)C(F)(F)F)S(=O)(=O)c1ccc(C2CCOCC2)s1 (stereo not shown) [Example 88, N-ethyl-5-(tetrahydro-2H-pyran-4-yl)-N-(2,2,2-trifluoro-1-(4-fluorophenyl)ethyl)thiophene-2-sulfonamide] | 5.60
11 | CCN([C@H](c1ccc(F)cc1)C(F)(F)F)S(=O)(=O)c1ccc2c(c1)OC(F)(F)O2 [Example 162, (R)—N-ethyl-2,2-difluoro-N-(2,2,2-trifluoro-1-(4-fluorophenyl)ethyl)benzo[d][1,3]dioxole-5-sulfonamide] | 6.01
12 | CCN([C@H](c1ccc(F)cc1)C(F)(F)F)S(=O)(=O)c1ccc2nc(N)sc2c1 [Example 154, (R)-2-amino-N-ethyl-N-(2,2,2-trifluoro-1-(4-fluorophenyl)ethyl)benzo[d]thiazole-6-sulfonamide] | 6.70
13 | CN(C(c1ccc(F)cc1)C(F)F)S(=O)(=O)c1ccc(Cl)s1 (stereo not shown) [Example 23, 5-chloro-N-(2,2-difluoro-1-(4-fluorophenyl)ethyl)-N-methylthiophene-2-sulfonamide] | 5.15
14 | CN([C@H](c1ccc(F)cc1)C(F)(F)F)S(=O)(=O)C1CCOCC1 [Example 132, (R)—N-methyl-N-(2,2,2-trifluoro-1-(4-fluorophenyl)ethyl)tetrahydro-2H-pyran-4-sulfonamide] | 6.05

The next lines start with the values.

Row | Cav2.3 (pIC50) | SMILES
15 | 7.33 | CCN([C@H](c1ccc(F)c(Cl)c1)C(F)(F)F)S(=O)(=O)c1cncc(C#N)c1 [Example 254, (R)—N-(1-(3-chloro-4-fluorophenyl)-2,2,2-trifluoroethyl)-5-cyano-N-ethylpyridine-3-sulfonamide]
16 | 6.34 | CCN(C(c1cccc(C(F)(F)F)c1)C(F)(F)F)S(=O)(=O)c1cncc(C#N)c1 (stereo not shown) [Example 85, 5-Cyano-N-ethyl-N-(2,2,2-trifluoro-1-(3-(trifluoromethyl)phenyl)ethyl)pyridine-3-sulfonamide]
17 | 5.95 | CCN([C@@H](c1cccc(F)c1)C(F)(F)F)S(=O)(=O)c1cncc(C#N)c1 [Example 112, (S)-5-cyano-N-ethyl-N-(2,2,2-trifluoro-1-(3-fluorophenyl)ethyl)pyridine-3-sulfonamide]
18 | 5.14 | CCN([C@H](c1ccccc1C(F)(F)F)C(F)(F)F)S(=O)(=O)c1cncc(C#N)c1 [Example 248, (R)-5-cyano-N-ethyl-N-(2,2,2-trifluoro-1-(2-(trifluoromethyl)phenyl)ethyl)pyridine-3-sulfonamide]
19 | 6.62 | CCN(C(c1ccc(F)cc1)C(F)(F)F)S(=O)(=O)c1cccc(C#N)n1 (stereo not shown) [Example 30, 6-cyano-N-ethyl-N-(2,2,2-trifluoro-1-(4-fluorophenyl)ethyl)pyridine-2-sulfonamide]
20 | 4.59 | CCN([C@H](c1ccccc1OC)C(F)(F)F)S(=O)(=O)c1cncc(C#N)c1 [Example 109, (R)-5-cyano-N-ethyl-N-(2,2,2-trifluoro-1-(2-methoxyphenyl)ethyl)pyridine-3-sulfonamide]
21 | 5.11 | CCN([C@@H](c1ccccc1C(F)(F)F)C(F)(F)F)S(=O)(=O)c1cncc(C#N)c1 [Example 247, (S)-5-cyano-N-ethyl-N-(2,2,2-trifluoro-1-(2-(trifluoromethyl)phenyl)ethyl)pyridine-3-sulfonamide]
22 | 6.20 | CCN([C@@H](c1ccc(F)cc1)C(F)(F)F)S(=O)(=O)c1cncc(C#N)c1 [Example 34, (S)-5-cyano-N-ethyl-N-(2,2,2-trifluoro-1-(4-fluorophenyl)ethyl)pyridine-3-sulfonamide]
23 | 6.54 | Cc1ccc(S(=O)(=O)N(C)[C@H](c2ccc(C(F)(F)F)cc2)C(F)(F)F)cn1 [Example 266, (R)—N,6-dimethyl-N-(2,2,2-trifluoro-1-(4-(trifluoromethyl)phenyl)ethyl)pyridine-3-sulfonamide]
24 | 6.96 | CCN(C(c1ccc(F)cc1)C(F)(F)F)S(=O)(=O)c1cncnc1 (stereo not shown) [Example 57, N-ethyl-N-(2,2,2-trifluoro-1-(4-fluorophenyl)ethyl)pyrimidine-5-sulfonamide]
25 | 5.73 | CCN([C@@H](c1ccc(F)c(F)c1)C(F)(F)F)S(=O)(=O)c1cncc(C#N)c1 [Example 249, (S)-5-cyano-N-(1-(3,4-difluorophenyl)-2,2,2-trifluoroethyl)-N-ethylpyridine-3-sulfonamide]
26 | 7.09 | CN([C@H](c1ccc(C(F)(F)F)cc1)C(F)(F)F)S(=O)(=O)c1cccnc1 [Example 267, (R)—N-methyl-N-(2,2,2-trifluoro-1-(4-(trifluoromethyl)phenyl)ethyl)pyridine-3-sulfonamide]
27 | 7.14 | CCN([C@H](c1ccc(F)c(F)c1)C(F)(F)F)S(=O)(=O)c1cncc(C#N)c1 [Example 250, (R)-5-cyano-N-(1-(3,4-difluorophenyl)-2,2,2-trifluoroethyl)-N-ethylpyridine-3-sulfonamide]
28 | 4.96 | CCN(C(c1ncc(C)s1)C(F)(F)F)S(=O)(=O)c1cncc(C#N)c1 (stereo not shown) [Example 264, 5-Cyano-N-ethyl-N-(2,2,2-trifluoro-1-(5-methylthiazol-2-yl)ethyl)pyridine-3-sulfonamide]
